Experimental data: article PMC12195707, “Evaluation of Antitumoral Activity in a 3D Cell Model of a Src Inhibitor Prodrug for Glioblastoma Treatment” (Pharmaceutics, 2025)

How the values were obtained:
[1] = PAMPA assay, gastrointestinal (GI) membrane; format: in vitro ADME; settings: four hours; for Papp at 4 h: pH 7.4, room temperature, read-out: Apparent permeability Papp; for Membrane retention MR: room temperature
Description: After being first dissolved in DMSO, the compounds were diluted 1:1 v/v using phosphate buffer (PBS 10 mM, pH 7.4). […] The gastrointestinal (GI) and blood–brain barrier (BBB) phospholipidic bilayers were mimicked by covering each well of the filter plate with either a 10%w/v CHCl3/dodecane brain polar lipid solution or a 1%w/v L-α-phosphatidylcholine solution (PC) in dodecane. After placing a DMSO/PBS 1:1v/v combination solution in the acceptor plate, the sandwich was gently shaken and incubated at room temperature for four hours. Samples were collected from the upper and bottom plates at the end time point, and the LC-UV/MS method was used for analysis. As previously reported, the apparent permeability (Papp cm/s × 10^−6) was quantified.

[2] = test system: U251 glioblastoma cell line; test: 2D cell viability assay (PrestoBlue), U251; format: cell-based; settings: Homo sapiens, U-251, 72 h, U251 2D culture
Description: (§1) The human glioblastoma cell line U87 MG (U87) was originally isolated from a patient with a malignant glioma (ECACC). The human glioblastoma cell line U251 MG (U251) was derived from a patient with a malignant glioblastoma (ECACC). DMEM high-glucose growth medium (Euroclone, Milan, Italy), supplemented with 10% FBS (Euroclone), 200 mM L-glutamine (Euroclone), 100 IU/mL penicillin, and 100 µg/mL streptomycin (Euroclone) comprised the culture medium used for cell propagation at a controlled temperature and atmosphere, at 37 °C, […], and 5% CO2. Cell lines underwent regular testing for mycoplasma using the PCR method and identity verification was performed using DNA profiling.
(§2) For the treatment of 2D cultures, U87 and U251 cell lines were initially seeded at a density of 2.5 × 10^4 cells/mL in a 24 multiwell with a complete DMEM high-glucose growth medium. The viability test was started 24 h after cell plating and performed for 72 h. According to the experimental plan, the tests were performed in the presence of a complete DMEM high-glucose growth medium or, to avoid the serum-dependent degradation of prodrug, in an FBS-free DMEM high-glucose growth medium that was supplemented with 200 mM L-glutamine, 100 IU/mL penicillin, and 100 µg/mL streptomycin. Cell viability in 2D and 3D models was assessed using the cell-permeable resazurin-based solution PrestoBlue (Thermo Fisher, Waltham, MA, USA). After incubating the cells in a 1:10 ratio with the colorimetric reagent for two hours in the dark, the spectrophotometer readings at 570 and 600 nm were utilized as a relative indicator for cell viability.
(§3) Data were imported into Excel or GraphPad Prism software (version 6.01) and elaborated as the mean ± standard deviation (SD) of at least three independent experiments. The calculation of IC50 values with 95% confidence intervals was performed in GraphPad Prism software using a parameter nonlinear fit of the log-dose vs. response elaboration of data. The p value of the log-dose vs. response was calculated with a two-tailed Mann–Whitney test for unpaired data. The statistical significance between two series of measures, including stability and PAMPA (both GI and BBB) experiments, was calculated with the parametric Student t test, considering a significant p value lower than 0.05.

[3] = test system: U87 glioblastoma cell line; test: 2D cell viability assay (PrestoBlue), U87; format: cell-based; settings: Homo sapiens, 72 h, U87 2D culture
Description: as §1, §2, §3

[4] = test system: U251 3D-bioprinted structures; test: Viability assay in 3D-bioprinted U251 cell model (PrestoBlue); format: cell-based; settings: Homo sapiens, U-251, 72 h, bioprinted U251 3D model
Description: A solution of 2% alginate and 8% gelatin (bio-ink) made up the hydrogel utilized for bioprinting. After 15 min of UV light exposure, the powders were dissolved in sterile DPBS in a magnetic stirrer set at 50 °C with laminar flow. After being made, bioink was put in sterile syringes and kept at 4 °C until it was needed. Bioink had been equilibrated at 37 °C prior to the bioprinting process. After that, 2.7 mL of bioink was added to 20 × 10^6 cells that had been resuspended in 300 µL of growth media. Lastly, a disposable cartridge containing a cell/hydrogel suspension was equilibrated in a temperature-controlled printhead for 30 min at 29 °C. The BIO-X bioprinter (Cellink, Gothenburg, Sweden) was used to print in a 12-well plate at a speed of 5 mm/s and a dispensing pressure of 50 kPa, while the temperature was adjusted to 18 °C. Before adding culture media, three-dimensional constructs were crosslinked using CaCl2 for ten minutes and BaCl2 for three minutes. After 8 days, 3D structures, after evaluating cell viability, were treated for 72 h with SI306 and SI306-PD2 at selected concentrations and in different conditions: in complete DMEM high-glucose growth medium and DMEM-high glucose growth medium without FBS (w/o). Fiji ImageJ software (version 2.16.0/1.54p, https://imagej.net/software/fiji/downloads, accessed on 20 May 2025) was used to perform measurements of 3D models’ diameters on images acquired using phase contrast microscopy. A hemocytometer was used to set a scale for normalized measures and to convert real optic distance in pixels. At least five different optical fields were acquired, and the diameter was calculated for at least 100 different cell aggregates in each experimental point.
For the treatment of 2D cultures, U87 and U251 cell lines were initially seeded at a density of 2.5 × 10^4 cells/mL in a 24 multiwell with a complete DMEM high-glucose growth medium. […] Cell viability in 2D and 3D models was assessed using the cell-permeable resazurin-based solution PrestoBlue (Thermo Fisher, Waltham, MA, USA). After incubating the cells in a 1:10 ratio with the colorimetric reagent for two hours in the dark, the spectrophotometer readings at 570 and 600 nm were utilized as a relative indicator for cell viability.
as §3, with “The calculation of IC50 values with 95% confidence intervals was performed in GraphPad Prism software using a parameter nonlinear fit of the log-dose vs. response elaboration of data.” left out

Src = biological target: Src; set-up: method as in PMID 28650650; settings: cited from earlier work
U87MG xenograft = test system: U87MG xenograft; set-up: method as in PMID 28650650; settings: nude mice, in combination with radiotherapy; cited from earlier work
U87 GBM cells = test system: U87 GBM cells; set-up: method as in PMID 12564978; settings: cited from earlier work
CAS-1 GBM cells = test system: CAS-1 GBM cells; set-up: method as in PMID 12564978; settings: CAS-1 cells; cited from earlier work

SMILES	Papp at 4 h [1] [×10⁻⁶ cm/s]	Membrane retention MR [1] [%]	IC50 ([2]; 10% FBS-DMEM) [nM]	IC50 ([2]; FBS-free DMEM (w/o)) [nM]	IC50 ([3]; 10% FBS-DMEM) [nM]	IC50 ([3]; FBS-free DMEM (w/o)) [nM]	IC50 ([4]; 10% FBS-DMEM) [nM]	IC50 ([4]; FBS-free DMEM (w/o)) [nM]	Ki (Src) [nM]	U87MG xenograft growth (U87MG xenograft)	Activity in GBM cells (U87 GBM cells)	Activity in GBM cells (CAS-1 GBM cells)
ClC(Cn1ncc2c(Nc3cccc(Br)c3)nc(SCCN3CCOCC3)nc21)c1ccccc1 (centres unmarked) [SI306, N-(3-bromophenyl)-1-(2-chloro-2-phenylethyl)-6-((2-morpholinoethyl)thio)-1H-pyrazolo[3,4-d]pyrimidin-4-amine]	5.93 ± 0.38	60.09 ± 3.38	2620	230	3070	270	14400	11600	130	strongly arrested U87MG xenograft growth	–	–
O=C(OCCOCCO)N(c1cccc(Br)c1)c1nc(SCCN2CCOCC2)nc2c1cnn2CC(Cl)c1ccccc1 (centres unmarked) [SI306-PD2, 2-(2-Hydroxyethoxy)ethyl (3-Bromophenyl)(1-(2-chloro-2-phenylethyl)-6-((2-morpholinoethyl)thio)-1H-pyrazolo[3,4-d]pyrimidin-4-yl)carbamate]	18.4 ± 2.32	5.26 ± 2.70	1290	90	1620	290	10000	5110	–	–	active	active
